Results reported in ChEMBL document CHEMBL1201861, “Genomics of Drug Sensitity in Cancer screening data, Wellcome Trust Sanger Institute”.

Legend:
[1] = test system: HSC-4; assay: cells; assay type: functional, cell-based, Homo sapiens; conditions: Homo sapiens, HSC-4;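 further: growth inhibition of human HSC-4 cells, read out with a cell viability assay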
Description: SANGER: Inhibition of human HSC-4 cell growth in a cell viability assay.

[2] = test system: OC-314; assay: cells; assay type: functional, cell-based; conditions: Homo sapiens
Description: SANGER: Inhibition of human OC-314 cell growth in a cell viability assay.

[3] = test system: D-423MG; assay: cells; assay type: functional, cell-based; conditions: Homo sapiens
Description: SANGER: Inhibition of human D-423MG cell growth in a cell viability assay.

[4] = test system: MOLT-13; assay: cells; assay type: functional, cell-based; conditions: Homo sapiens;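 further: IC50 for suppression of MOLT-13 cell growth, read out with a cell viability assay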
Description: SANGER: Inhibition of human MOLT-13 cell growth in a cell viability assay.

[5] = test system: NCI-H1573; assay: cells; assay type: functional, cell-based; conditions: Homo sapiens;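 further: growth inhibition of NCI-H1573 cells, read out with a cell viability assay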
Description: SANGER: Inhibition of human NCI-H1573 cell growth in a cell viability assay.

[6] = test system: NCI-H1703; assay: cells; assay type: functional, cell-based, Homo sapiens; conditions: Homo sapiens, NCI-H1703;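 further: growth inhibition of NCI-H1703 cells, read out via a cell viability assay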
Description: SANGER: Inhibition of human NCI-H1703 cell growth in a cell viability assay.

[7] = test system: BALL-1; assay: cells; assay type: functional, cell-based; conditions: Homo sapiens;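 further: growth inhibition of BALL-1 cells, read out with a cell viability assay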
Description: SANGER: Inhibition of human BALL-1 cell growth in a cell viability assay.

[8] = test system: MEL-JUSO; assay: cells; assay type: functional, cell-based, Homo sapiens; conditions: Homo sapiens, MEL-JUSO;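 further: growth inhibition of human MEL-JUSO cells, read out with a cell viability assay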
Description: SANGER: Inhibition of human MEL-JUSO cell growth in a cell viability assay.

[9] = test system: ZR-75-30; assay: cells; assay type: functional, cell-based; conditions: Homo sapiens;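 further: growth inhibition of ZR-75-30 cells, measured with a cell viability readout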
Description: SANGER: Inhibition of human ZR-75-30 cell growth in a cell viability assay.

[10] = test system: EPLC-272H; assay: cells; assay type: functional, cell-based; conditions: Homo sapiens
Description: SANGER: Inhibition of human EPLC-272H cell growth in a cell viability assay.

[11] = test system: TGBC11TKB; assay: cells; assay type: functional, cell-based; conditions: Homo sapiens;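 further: growth inhibition of human TGBC11TKB cells, measured by a cell viability assay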
Description: SANGER: Inhibition of human TGBC11TKB cell growth in a cell viability assay.

[12] = test system: YH-13; assay: cells; assay type: functional, cell-based; conditions: Homo sapiens;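 further: cell viability readout of growth suppression in the human YH-13 cell line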
Description: SANGER: Inhibition of human YH-13 cell growth in a cell viability assay.

[13] = test system: TI-73; assay: cells; assay type: functional, cell-based; conditions: Homo sapiens;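 further: cell viability assay measuring how much compounds suppress growth of the cultured cell line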
Description: SANGER: Inhibition of human TI-73 cell growth in a cell viability assay.

[14] = test system: SW900; assay: cells; assay type: functional, cell-based; conditions: Homo sapiens;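 further: IC50 is the concentration that inhibits SW900 cell growth, measured by a cell viability assay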
Description: SANGER: Inhibition of human SW900 cell growth in a cell viability assay.

[15] = test system: SW 1116; assay: cells; assay type: functional, cell-based; conditions: Homo sapiens;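 further: growth inhibition of SW1116 cells, read out with a cell viability assay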
Description: SANGER: Inhibition of human SW1116 cell growth in a cell viability assay.

[16] = test system: ECC10; assay: cells; assay type: functional, cell-based; conditions: Homo sapiens;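 further: growth inhibition of ECC10 cells, read out by a cell viability assay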
Description: SANGER: Inhibition of human ECC10 cell growth in a cell viability assay.

[17] = test system: SNU-423; assay: cells; assay type: functional, cell-based, Homo sapiens; conditions: Homo sapiens, SNU-423
Description: SANGER: Inhibition of human SNU-423 cell growth in a cell viability assay.

[18] = test system: REH; assay: cells; assay type: functional, cell-based; conditions: Homo sapiens;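 further: growth inhibition of REH cells determined with a cell viability read-out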
Description: SANGER: Inhibition of human REH cell growth in a cell viability assay.

[19] = test system: IMR-5; assay: cells; assay type: functional, cell-based; conditions: Homo sapiens;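 further: growth inhibition of human IMR-5 cells, read out with a cell viability assay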
Description: SANGER: Inhibition of human IMR-5 cell growth in a cell viability assay.

[20] = test system: YT; assay: cells; assay type: functional, cell-based; conditions: Homo sapiens
Description: SANGER: Inhibition of human YT cell growth in a cell viability assay.

[21] = test system: L-540; assay: cells; assay type: functional, cell-based; conditions: Homo sapiens;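 further: growth inhibition of the human L-540 cell line, read out with a viability assay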
Description: SANGER: Inhibition of human L-540 cell growth in a cell viability assay.

[22] = test system: THP-1; assay: cells; assay type: functional, cell-based; conditions: Homo sapiens;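 further: growth inhibition of THP-1 cells, read out via a cell viability assay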
Description: SANGER: Inhibition of human THP-1 cell growth in a cell viability assay.

[23] = test system: NCI-H1436; assay: cells; assay type: functional, cell-based; conditions: Homo sapiens;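 further: growth suppression of human NCI-H1436 cells, determined with a cell viability readout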
Description: SANGER: Inhibition of human NCI-H1436 cell growth in a cell viability assay.

[24] = test system: Raji; assay: cells; assay type: functional, cell-based; conditions: Homo sapiens;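 further: cell viability assay measuring inhibition of Raji cell growth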
Description: SANGER: Inhibition of human Raji cell growth in a cell viability assay.

[25] = test system: NCI-H2009; assay: cells; assay type: functional, cell-based, Homo sapiens; conditions: Homo sapiens, NCI-H2009;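 further: cell viability assay measuring inhibition of NCI-H2009 cell growth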
Description: SANGER: Inhibition of human NCI-H2009 cell growth in a cell viability assay.

[26] = test system: Daudi; assay: cells; assay type: functional, cell-based; conditions: Homo sapiens;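 further: growth inhibition of Daudi cells, read out by a viability assay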
Description: SANGER: Inhibition of human Daudi cell growth in a cell viability assay.

[27] = test system: RPMI-6666; assay: cells; assay type: functional, cell-based; conditions: Homo sapiens
Description: SANGER: Inhibition of human RPMI-6666 cell growth in a cell viability assay.

[28] = test system: MHH-CALL-2; assay: cells; assay type: functional, cell-based; conditions: Homo sapiens;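 further: growth inhibition of the cell line, read out in a cell viability assay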
Description: SANGER: Inhibition of human MHH-CALL-2 cell growth in a cell viability assay.

[29] = test system: 23132-87; assay: cells; assay type: functional, cell-based, Homo sapiens; conditions: Homo sapiens
Description: SANGER: Inhibition of human 23132-87 cell growth in a cell viability assay.

[30] = test system: PF-382; assay: cells; assay type: functional, cell-based; conditions: Homo sapiens
Description: SANGER: Inhibition of human PF-382 cell growth in a cell viability assay.

[31] = test system: NCI-H345; assay: cells; assay type: functional, cell-based; conditions: Homo sapiens;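 further: growth inhibition of NCI-H345 cells measured with a cell viability assay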
Description: SANGER: Inhibition of human NCI-H345 cell growth in a cell viability assay.

[32] = test system: EB2; assay: cells; assay type: functional, cell-based; conditions: Homo sapiens;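 further: growth inhibition of EB2 cells, read out with a cell viability assay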
Description: SANGER: Inhibition of human EB2 cell growth in a cell viability assay.

[33] = test system: CMK; assay: cells; assay type: functional, cell-based; conditions: Homo sapiens;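 further: growth inhibition of CMK cells, read out as cell viability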
Description: SANGER: Inhibition of human CMK cell growth in a cell viability assay.

[34] = test system: K052; assay: cells; assay type: functional, cell-based; conditions: Homo sapiens;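 further: Read-out from a cell viability assay, IC50 reflecting suppression of K052 cell growth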
Description: SANGER: Inhibition of human K052 cell growth in a cell viability assay.

[35] = test system: TALL-1; assay: cells; assay type: functional, cell-based; conditions: Homo sapiens;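 further: growth inhibition of cultured human TALL-1 cells, read out by a cell viability assay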
Description: SANGER: Inhibition of human TALL-1 cell growth in a cell viability assay.

[36] = test system: NCI-H2227; assay: cells; assay type: functional, cell-based; conditions: Homo sapiens;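 further: growth inhibition of the human cell line, read out with a cell viability assay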
Description: SANGER: Inhibition of human NCI-H2227 cell growth in a cell viability assay.

[37] = test system: SUP-T1; assay: cells; assay type: functional, cell-based; conditions: Homo sapiens;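 further: growth inhibition of human SUP-T1 cells, read out as cell viability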
Description: SANGER: Inhibition of human SUP-T1 cell growth in a cell viability assay.

[38] = test system: CA46; assay: cells; assay type: functional, cell-based; conditions: Homo sapiens;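 further: growth inhibition of human CA46 cells, read out by a cell viability assay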
Description: SANGER: Inhibition of human CA46 cell growth in a cell viability assay.

[39] = test system: BOKU; assay: cells; assay type: functional, cell-based; conditions: Homo sapiens;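 further: growth inhibition of the human BOKU cell line, read out by a cell viability assay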
Description: SANGER: Inhibition of human BOKU cell growth in a cell viability assay.

[40] = test system: BL-41; assay: cells; assay type: functional, cell-based; conditions: Homo sapiens;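 further: growth inhibition of human BL-41 cells, read out with a cell viability assay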
Description: SANGER: Inhibition of human BL-41 cell growth in a cell viability assay.

[41] = test system: RPMI 8402; assay: SANGER: Inhibition of human RPMI-8402 cell growth in a cell viability assay.; assay type: functional, cell-based
[42] = test system: LC-1F; assay: cells; assay type: functional, cell-based; conditions: Homo sapiens;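 further: growth inhibition of human LC-1F cells, read out with a cell viability assay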
Description: SANGER: Inhibition of human LC-1F cell growth in a cell viability assay.

[43] = test system: NB1; assay: cells; assay type: functional, cell-based; conditions: Homo sapiens;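 further: reduction of NB1 cell proliferation, read out with a viability assay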
Description: SANGER: Inhibition of human NB1 cell growth in a cell viability assay.

[44] = test system: HCC1599; assay: cells; assay type: functional, cell-based; conditions: Homo sapiens;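 further: growth inhibition of HCC1599 cells, read out in a cell viability assay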
Description: SANGER: Inhibition of human HCC1599 cell growth in a cell viability assay.

[45] = test system: BL-70; assay: SANGER: Inhibition of human BL-70 cell growth in a cell viability assay.; assay type: functional, cell-based
[46] = test system: OPM-2; assay: cells; assay type: functional, cell-based; conditions: Homo sapiens;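 further: growth of OPM-2 cells measured with a viability assay, IC50 for suppression of proliferation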
Description: SANGER: Inhibition of human OPM-2 cell growth in a cell viability assay.

[47] = test system: JIYOYE; assay: cells; assay type: functional, cell-based; conditions: Homo sapiens
Description: SANGER: Inhibition of human JiyoyeP-2003 cell growth in a cell viability assay.

[48] = test system: ECC4; assay: cells; assay type: functional, cell-based; conditions: Homo sapiens;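 further: growth inhibition of ECC4 cells, read out with a cell viability assay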
Description: SANGER: Inhibition of human ECC4 cell growth in a cell viability assay.

[49] = test system: RL; assay: cells; assay type: functional, cell-based; conditions: Homo sapiens
Description: SANGER: Inhibition of human RL cell growth in a cell viability assay.

[50] = test system: BC1 cell line; assay: SANGER: Inhibition of human BC-1 cell growth in a cell viability assay.; assay type: functional, cell-based
[51] = test system: NCI-H2196; assay: cells; assay type: functional, cell-based; conditions: Homo sapiens;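 further: cell viability assay used as the readout of growth inhibition in NCI-H2196 cells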
Description: SANGER: Inhibition of human NCI-H2196 cell growth in a cell viability assay.

[52] = test system: NCI-H1522; assay: cells; assay type: functional, cell-based; conditions: Homo sapiens;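 further: growth inhibition of NCI-H1522 cells, read out with a cell viability assay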
Description: SANGER: Inhibition of human NCI-H1522 cell growth in a cell viability assay.

[53] = test system: NCI-H889; assay: cells; assay type: functional, cell-based; conditions: Homo sapiens;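 further: cell growth inhibition of the cell line, read out with a viability assay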
Description: SANGER: Inhibition of human NCI-H889 cell growth in a cell viability assay.

[54] = test system: LC4-1; assay: cells; assay type: functional, cell-based; conditions: Homo sapiens;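 further: growth inhibition of LC4-1 cells, read out with a cell viability assay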
Description: SANGER: Inhibition of human LC4-1 cell growth in a cell viability assay.

[55] = test system: SNU-C1; assay: cells; assay type: functional, cell-based; conditions: Homo sapiens;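 further: growth inhibition of SNU-C1 human cells, read out by a cell viability assay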
Description: SANGER: Inhibition of human SNU-C1 cell growth in a cell viability assay.

[56] = test system: KARPAS-422; assay: cells; assay type: functional, cell-based; conditions: Homo sapiens
Description: SANGER: Inhibition of human KARPAS-422 cell growth in a cell viability assay.

[57] = test system: LP-1; assay: cells; assay type: functional, cell-based; conditions: Homo sapiens;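 further: growth inhibition of human LP-1 cells, with the read-out taken from a cell viability assay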
Description: SANGER: Inhibition of human LP-1 cell growth in a cell viability assay.

[58] = test system: NCI-H1882; assay: cells; assay type: functional, cell-based; conditions: Homo sapiens
Description: SANGER: Inhibition of human NCI-H1882 cell growth in a cell viability assay.

[59] = test system: UACC-812; assay: cells; assay type: functional, cell-based; conditions: Homo sapiens
Description: SANGER: Inhibition of human UACC-812 cell growth in a cell viability assay.

[60] = test system: GDM-1; assay: cells; assay type: functional, cell-based; conditions: Homo sapiens;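 further: cell viability readout used to measure growth inhibition of human GDM-1 cells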
Description: SANGER: Inhibition of human GDM-1 cell growth in a cell viability assay.

[61] = test system: WSU-NHL; assay: cells; assay type: functional, cell-based; conditions: Homo sapiens;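 further: growth inhibition of human WSU-NHL cells, read out with a cell viability assay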
Description: SANGER: Inhibition of human WSU-NHL cell growth in a cell viability assay.

[62] = test system: BT-549; assay: cells; assay type: functional, cell-based; conditions: Homo sapiens
Description: SANGER: Inhibition of human BT-549 cell growth in a cell viability assay.

O=C(c1cc(Cc2n[nH]c(=O)c3ccccc23)ccc1F)N1CCN(C(=O)C2CC2)CC1 [OLAPARIB]
IC50 [1]: > 5 µM
IC50 [2]: > 5 µM
IC50 [3]: > 5 µM
IC50 [4]: > 5 µM
IC50 [5]: > 5 µM
IC50 [6]: > 5 µM
IC50 [7]: > 5 µM
IC50 [8]: > 5 µM
IC50 [9]: > 5 µM
IC50 [10]: > 5 µM
IC50 [11]: > 5 µM
IC50 [12]: > 5 µM
IC50 [13]: > 5 µM
IC50 [14]: > 5 µM
IC50 [15]: > 5 µM
IC50 [16]: > 5 µM
IC50 [17]: > 5 µM

C=CCc1cccc(/C=N/NC(=O)CN2CCN(Cc3ccccc3)CC2)c1O [PAC-1]
IC50 [1]: > 2.56 µM
IC50 [18]: 0.944 µM
IC50 [19]: > 2.56 µM
IC50 [20]: > 2.56 µM
IC50 [21]: 2.2 µM
IC50 [22]: > 2.56 µM
IC50 [23]: > 2.56 µM
IC50 [24]: 2.13 µM
IC50 [25]: > 2.56 µM
IC50 [5]: > 2.56 µM
IC50 [26]: 0.947 µM
IC50 [6]: > 2.56 µM
IC50 [27]: 1.04 µM
IC50 [28]: > 2.56 µM
IC50 [29]: > 2.56 µM
IC50 [30]: 1.06 µM
IC50 [31]: > 2.56 µM
IC50 [32]: > 2.56 µM
IC50 [33]: 2.13 µM
IC50 [34]: > 2.56 µM
IC50 [35]: > 2.56 µM
IC50 [36]: > 2.56 µM
IC50 [37]: 1 µM
IC50 [8]: > 2.56 µM
IC50 [38]: 2.02 µM
IC50 [39]: > 2.56 µM
IC50 [40]: 1.45 µM
IC50 [41]: 1.77 µM
IC50 [42]: > 2.56 µM
IC50 [43]: > 2.56 µM
IC50 [44]: > 2.56 µM
IC50 [45]: 1.97 µM
IC50 [46]: > 2.56 µM
IC50 [47]: 1.1 µM
IC50 [48]: > 2.56 µM
IC50 [49]: > 2.56 µM
IC50 [50]: 1.1 µM
IC50 [51]: > 2.56 µM
IC50 [52]: > 2.56 µM
IC50 [53]: > 2.56 µM
IC50 [54]: > 2.56 µM
IC50 [55]: > 2.56 µM
IC50 [56]: > 2.56 µM
IC50 [17]: > 2.56 µM
IC50 [57]: > 2.56 µM
IC50 [58]: > 2.56 µM
IC50 [59]: > 2.56 µM
IC50 [60]: > 2.56 µM
IC50 [61]: > 2.56 µM

Cc1ccc(Nc2nccc(N(C)c3ccc4c(C)n(C)nc4c3)n2)cc1S(N)(=O)=O [PAZOPANIB]
IC50 [1]: > 8 µM
IC50 [18]: > 8 µM
IC50 [19]: > 8 µM
IC50 [20]: > 8 µM
IC50 [21]: > 8 µM
IC50 [22]: > 8 µM
IC50 [23]: > 8 µM
IC50 [24]: > 8 µM
IC50 [25]: > 8 µM
IC50 [5]: 5.97 µM
IC50 [26]: 3.66 µM
IC50 [6]: > 8 µM
IC50 [27]: > 8 µM
IC50 [28]: > 8 µM
IC50 [29]: > 8 µM
IC50 [30]: > 8 µM
IC50 [31]: > 8 µM
IC50 [32]: 3.28 µM
IC50 [33]: > 8 µM
IC50 [34]: > 8 µM
IC50 [35]: > 8 µM
IC50 [36]: > 8 µM
IC50 [37]: > 8 µM
IC50 [8]: > 8 µM
IC50 [38]: > 8 µM
IC50 [39]: > 8 µM
IC50 [40]: > 8 µM
IC50 [41]: > 8 µM
IC50 [42]: > 8 µM
IC50 [43]: > 8 µM
IC50 [44]: > 8 µM
IC50 [45]: > 8 µM
IC50 [46]: > 8 µM
IC50 [47]: > 8 µM
IC50 [48]: > 8 µM
IC50 [49]: > 8 µM
IC50 [50]: > 8 µM
IC50 [51]: > 8 µM
IC50 [52]: > 8 µM
IC50 [53]: > 8 µM
IC50 [54]: > 8 µM
IC50 [55]: > 8 µM
IC50 [56]: > 8 µM
IC50 [17]: > 8 µM
IC50 [57]: > 8 µM
IC50 [58]: > 8 µM
IC50 [59]: > 8 µM
IC50 [60]: 0.104 µM
IC50 [61]: > 8 µM

Cn1cc(C2=C(c3ccc(Cl)cc3Cl)C(=O)NC2=O)c2ccccc21 [SB-216763]
IC50 [1]: > 10 µM
IC50 [2]: > 10 µM
IC50 [3]: > 10 µM
IC50 [25]: > 10 µM
IC50 [5]: > 10 µM
IC50 [6]: > 10 µM
IC50 [29]: > 10 µM
IC50 [7]: > 10 µM
IC50 [8]: > 10 µM
IC50 [9]: > 10 µM
IC50 [10]: > 10 µM
IC50 [11]: > 10 µM
IC50 [12]: > 10 µM
IC50 [13]: > 10 µM
IC50 [14]: > 10 µM
IC50 [62]: 5.29 µM
IC50 [15]: > 10 µM

Cn1cncc1[C@@](N)(c1ccc(Cl)cc1)c1ccc2c(c1)c(-c1cccc(Cl)c1)cc(=O)n2C [TIPIFARNIB]
IC50 [1]: > 16 µM
IC50 [18]: 0.0592 µM
IC50 [19]: > 16 µM
IC50 [20]: 1.65 µM
IC50 [21]: 4.83 µM
IC50 [22]: > 16 µM
IC50 [23]: > 16 µM
IC50 [24]: 12.5 µM
IC50 [25]: 0.363 µM
IC50 [5]: 5.9 µM
IC50 [26]: 2.5 µM
IC50 [6]: > 16 µM
IC50 [27]: < 0.0625 µM
IC50 [28]: 10.6 µM
IC50 [29]: 6.7 µM
IC50 [30]: 1.71 µM
IC50 [31]: > 16 µM
IC50 [32]: 2.72 µM
IC50 [33]: 0.151 µM
IC50 [34]: 15.9 µM
IC50 [35]: > 16 µM
IC50 [36]: > 16 µM
IC50 [37]: 0.787 µM
IC50 [8]: 0.0234 µM
IC50 [38]: 2.39 µM
IC50 [39]: > 16 µM
IC50 [40]: 2.77 µM
IC50 [41]: 1.28 µM
IC50 [42]: > 16 µM
IC50 [43]: > 16 µM
IC50 [44]: > 16 µM
IC50 [45]: 1.95 µM
IC50 [46]: > 16 µM
IC50 [47]: 9.18 µM
IC50 [48]: > 16 µM
IC50 [49]: > 16 µM
IC50 [50]: 0.13 µM
IC50 [51]: > 16 µM
IC50 [52]: > 16 µM
IC50 [53]: > 16 µM
IC50 [54]: 2.55 µM
IC50 [55]: > 16 µM
IC50 [56]: > 16 µM
IC50 [17]: 0.705 µM
IC50 [57]: > 16 µM
IC50 [58]: > 16 µM
IC50 [59]: > 16 µM
IC50 [60]: 0.352 µM
IC50 [61]: > 16 µM
